PubChem BioAssay AID248 (DTP/NCI, 2004)
Values joined by “and” are separate entries in the source; they are usually repeats but may differ in a detail not shown here. Equal entries are not always repeated. Toxic doses and inconclusive results are not listed.

Tested on: L1210 leukemia ip in BDF1 mice, survival T/C
Assay: NCI In Vivo Anticancer Drug Screen. Data for tumor model L1210 Leukemia (intraperitoneal) in B6D2F1 (BDF1) mice
Conditions: higher = longer survival
In short: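 In this screen, tumor-bearing mice given compound are compared to those given vehicle, and their survival values are reported as a treated-to-control quotient.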

`NC(=S)N/N=C/c1ccc(O)cn1` was tested, and the T/C (endpoint: mean survival time, dose: 200.0 mg/kg/injection, schedule: Q## X008 (oral), vehicle: other) was 111 % of control, the T/C (endpoint: mean survival time, dose: 200.0 mg/kg/injection, schedule: Q## X016 (oral), vehicle: other) was 106 % of control and the T/C (endpoint: mean survival time, dose: 200.0 mg/kg/injection, schedule: Q## X024 (oral), vehicle: other) was 102 % of control. The T/C (endpoint: mean survival time, dose: 280.0 mg/kg/injection, schedule: Q01DX001 (ip), vehicle: saline with Tween-80) was 118 % of control and 119 % of control, the T/C (endpoint: mean survival time, dose: 300.0 mg/kg/injection, schedule: Q01DX001 (ip), vehicle: alkali diluted with saline) was 108 % of control and the T/C (endpoint: mean survival time, dose: 300.0 mg/kg/injection, schedule: Q01DX009 (ip), vehicle: saline with Tween-80) was 107 % of control. For the same compound, the T/C (endpoint: mean survival time, dose: 300.0 mg/kg/injection, schedule: Q08DX002 (ip), vehicle: alkali diluted with saline) was 105 % of control, the T/C (endpoint: mean survival time, dose: 400.0 mg/kg/injection, schedule: Q01DX001 (ip), vehicle: saline) was 109 % of control and the T/C (endpoint: mean survival time, dose: 400.0 mg/kg/injection, schedule: Q01DX001 (oral), vehicle: other) was 105 % of control. For the same compound, the T/C (endpoint: mean survival time, dose: 400.0 mg/kg/injection, schedule: Q01DX009 (oral), vehicle: carboxymethylcellulose (CMC)) was 153 % of control, the T/C (endpoint: mean survival time, dose: 400.0 mg/kg/injection, schedule: Q01DX009 (oral), vehicle: other) was 156 % of control and the T/C (endpoint: mean survival time, dose: 400.0 mg/kg/injection, schedule: Q01DX015 (ip), vehicle: carboxymethylcellulose (CMC)) was 103 % of control. For the same compound, the T/C (endpoint: mean survival time, dose: 400.0 mg/kg/injection, schedule: Q03HX024 (ip), vehicle: clinical formulation) was 98 % of control, the T/C (endpoint: mean survival time, dose: 400.0 mg/kg/injection, schedule: Q## X002 (oral), vehicle: other) was 105 % of control and the T/C (endpoint: mean survival time, dose: 400.0 mg/kg/injection, schedule: Q## X003 (ip), vehicle: other) was 150 % of control. For the same compound, the T/C (endpoint: mean survival time, dose: 400.0 mg/kg/injection, schedule: Q## X003 (oral), vehicle: other) was 116 % of control, the T/C (endpoint: mean survival time, dose: 400.0 mg/kg/injection, schedule: Q## X008 (oral), vehicle: other) was 110 % of control and the T/C (endpoint: mean survival time, dose: 400.0 mg/kg/injection, schedule: Q## X016 (oral), vehicle: other) was 120 % of control. The T/C (endpoint: mean survival time, dose: 400.0 mg/kg/injection, schedule: Q## X024 (oral), vehicle: other) was 122 % of control, the T/C (endpoint: mean survival time, dose: 427.0 mg/kg/injection, schedule: Q01DX001 (ip), vehicle: saline with Tween-80) was 121 % of control and 122 % of control and the T/C (endpoint: mean survival time, dose: 600.0 mg/kg/injection, schedule: Q01DX001 (ip), vehicle: alkali diluted with saline) was 108 % of control. The T/C (endpoint: mean survival time, dose: 600.0 mg/kg/injection, schedule: Q01DX005 (ip), vehicle: other) was 97 % of control, the T/C (endpoint: mean survival time, dose: 600.0 mg/kg/injection, schedule: Q01DX009 (ip), vehicle: other) was 108 % of control and the T/C (endpoint: mean survival time, dose: 600.0 mg/kg/injection, schedule: Q08DX002 (ip), vehicle: alkali diluted with saline) was 105 % of control. For the same compound, the T/C (endpoint: mean survival time, dose: 800.0 mg/kg/injection, schedule: Q01DX001 (oral), vehicle: other) was 106 % of control, the T/C (endpoint: mean survival time, dose: 800.0 mg/kg/injection, schedule: Q## X002 (oral), vehicle: other) was 115 % of control and the T/C (endpoint: mean survival time, dose: 800.0 mg/kg/injection, schedule: Q## X003 (oral), vehicle: other) was 107 % of control. For the same compound, the T/C (endpoint: mean survival time, dose: 800.0 mg/kg/injection, schedule: Q## X008 (oral), vehicle: other) was 123 % of control, the T/C (endpoint: mean survival time, dose: 800.0 mg/kg/injection, schedule: Q## X024 (oral), vehicle: other) was 155 % of control and the T/C (endpoint: mean survival time, dose: 833.0 mg/kg/injection, schedule: Q01DX001 (ip), vehicle: saline) was 153 % of control. For the same compound, the T/C (endpoint: mean survival time, dose: 1200.0 mg/kg/injection, schedule: Q01DX001 (ip), vehicle: other) was 158 % of control, the T/C (endpoint: mean survival time, dose: 1388.0 mg/kg/injection, schedule: Q01DX001 (ip), vehicle: saline) was 157 % of control and the T/C (endpoint: mean survival time, dose: 1600.0 mg/kg/injection, schedule: Q## X024 (ip), vehicle: other) was 104 % of control. The T/C (endpoint: mean survival time, dose: 2400.0 mg/kg/injection, schedule: Q01DX001 (ip), vehicle: saline) was 150 % of control and 152 % of control, the T/C (endpoint: mean survival time, dose: 2400.0 mg/kg/injection, schedule: Q## X016 (ip), vehicle: other) was 100 % of control and the T/C (endpoint: median survival time, dose: 37.5 mg/kg/injection, schedule: Q01DX009 (ip), vehicle: water) was 155 % of control and 157 % of control. For the same compound, the T/C (endpoint: median survival time, dose: 50.0 mg/kg/injection, schedule: Q01DX009 (ip), vehicle: other) was 150 % of control, the T/C (endpoint: median survival time, dose: 100.0 mg/kg/injection, schedule: Q04DX003 (ip), vehicle: other) was 105 % of control and the T/C (endpoint: median survival time, dose: 100.0 mg/kg/injection, schedule: Q04DX003 (sc), vehicle: other) was 100 % of control. For the same compound, the T/C (endpoint: median survival time, dose: 150.0 mg/kg/injection, schedule: Q01DX009 (ip), vehicle: water) was 122 % of control and 124 % of control, the T/C (endpoint: median survival time, dose: 200.0 mg/kg/injection, schedule: Q04DX003 (ip), vehicle: other) was 120 % of control and the T/C (endpoint: median survival time, dose: 300.0 mg/kg/injection, schedule: Q01DX009 (ip), vehicle: water) was 105 % of control and 106 % of control. For the same compound, the T/C (endpoint: median survival time, dose: 400.0 mg/kg/injection, schedule: Q04DX003 (ip), vehicle: other) was 100 % of control, the T/C (endpoint: median survival time, dose: 400.0 mg/kg/injection, schedule: Q04DX003 (sc), vehicle: other) was 120 % of control and the T/C (endpoint: median survival time, dose: 500.0 mg/kg/injection, schedule: Q01DX001 (ip), vehicle: saline) was 150 % of control. The T/C (endpoint: median survival time, dose: 1388.0 mg/kg/injection, schedule: Q01DX001 (ip), vehicle: saline) was 157 % of control.
